According to US20230301957A1, “PO[…] ACID ESTER COMPOSITION AND APPLICATION THEREOF” (SINGAO (XUZHOU) BIOTECH CO., LTD, priority 2020, published 2023):

Tested on: influenza virus H1N1
Assay: Hemagglutination test of supernatants of influenza-infected A549 cells
Format: cell-based, influenza virus H1N1 (A549 cells)
Details: for hemagglutination titer, average values: average of the two inoculation treatments (Protocol 1 and 2); for inhibitory effect on the influenza virus (in words): from average hemagglutination titers, high titer indicates high virus content
Procedure: A total of four samples were prepared in this experiment: • (1) a lauric acid sample: 3.5 mg of lauric acid was dissolved in 0.5 mL of dimethyl sulfoxide, and then diluted with 9.5 mL of cell culture medium to a final concentration of 0.35 mg/mL and a pH value of the sample was 10.1; • (2) an α-monolaurin sample: 4.8 mg of α-monolaurin was dissolved in 0.5 mL of dimethyl sulfoxide, and then diluted with 9.5 mL of cell culture medium to a final concentration of 0.48 mg/mL and a pH value of the sample was 10.3; • (3) a triglycerol monolaurin sample: 7.5 mg of triglycerol monolaurin was diluted with 10 mL of cell culture medium to a final concentration of 0.75 mg/mL and a pH value of the sample was 7.6; and • (4) a triglycerol monolaurin acidic emulsion sample: 50 mg of triglycerol monolaurin acidic emulsion sample was diluted with 10 mL of cell culture medium to a final concentration of 5 mg/mL and a pH value of the sample was 7.5.
According to equivalent lauric acid concentration conversion, lauric acid concentrations in the samples (2) to (4) were all 0.35 mg/mL, which was equal to that in the sample (1).
The A549 cells were cultured in a 24-well plate, after growing to a monolayer, the cells were treated according to the following two protocols: • I. The cell culture medium was removed, the virus was added, the cells were cultured in an incubator with 5% CO2 at 37° C. for 1 h, the virus solution was removed, each prepared sample was added, 12 parallel test wells were set for each group, and the cells were cultured in the incubator with 5% CO2 at 37° C. for 1 h. After the culture, liquids in the cell culture wells were removed, the cells were washed with PBS, added with a cell maintenance medium, and cultured in the incubator with 5% CO2 at 37° C. for 24 h. Meanwhile, a virus positive control group (a cell culture medium mixed with influenza virus 24HAU was added) was set. • II. The cell culture medium was removed, each prepared sample and the virus were added, 12 parallel test wells were set for each group, and the cells were cultured in an incubator with 5% CO2 at 37° C. for 1 h. After the culture, liquids in the cell culture wells were removed, the cells were washed with PBS, added with a cell maintenance medium, and cultured in the incubator with 5% CO2 at 37° C. for 24 h. Meanwhile, a virus positive control group (a cell culture medium mixed with influenza virus 24HAU was added) was set.
Cell culture supernatants respectively obtained by the above 2 treatment methods were used for hemagglutination test, each culture plate was frozen and thawed repeatedly 3 times, a cell solution was collected for extraction of RNA, which was used for qRT-PCR detection of nucleoprotein (NP).

Molecule | hemagglutination titer, average values | inhibitory effect on the influenza virus (in words)
triglycerol monolaurin [(3)] | 4.25 | weaker compared to the sample (4)
CCCCCCCCCCCC(=O)OCC(O)CO (stereo not drawn) [(2), α-monolaurin] | 2.25 | the strongest
CCCCCCCCCCCC(=O)O [(1), lauric acid] | 4.75 | weaker compared to the sample (4)
